From patent publication US11572341B2, “Biguanide compound and use thereof” (ImmunoMet Therapeutics Inc., priority 2014, dated 2023)
Like-named read-outs stand apart in the source and are kept apart here.

Assays:
HCT116 cells = test: Inhibitory effect against cancer cell proliferation (MTT); format: cell-based, human; details: HCT116, MTT, 48 hours, read-out: IC50 (uM) @ HCT116
Procedure: The formazane crystals thus formed were dissolved using dimethyl sulfoxide (DMSO) and absorbance of the solution was measured at 560 nm. After culturing for 48 hours, […] synthesized in Examples was indicated as cell viability (%) according to each treated concentration.

AMPKa [pT172] = test: AMPKa activation [pT172] in MCF7 cell; format: cell-based

| SMILES | IC50 (HCT116 cells; Homo sapiens, HCT-116) | AMPKa activation [pT172] (Unit/ml) @ MCF7 cell (AMPKa [pT172]; 5 uM) | AMPKa activation [pT172] (Unit/ml) @ MCF7 cell (AMPKa [pT172]; 10 uM) | AMPKa activation [pT172] (Unit/ml) @ MCF7 cell (AMPKa [pT172]; 50 uM) | IC50 (HCT116 cells) |
| --- | --- | --- | --- | --- | --- |
| Cl.N=C(N)N/C(=N/c1ccc(Br)cc1)NCCc1ccccc1 [Example 95, N1-phenethvl-N2-(4-bromo)phenyl Biguanide Hydrochloride] | 14.1 µM | 4.9 Unit/ml | 6.8 Unit/ml | 23.6 Unit/ml | – |
| CC/N=C(\NCc1ccc2c(c1)OCO2)NC(=N)N.Cl [Example 100, N1-(benzo[d][1,3]dioxol-5-yl)methyl-N2-ethyl Biguanide Hydrochloride] | > 100 µM | 7.1 Unit/ml | 9.0 Unit/ml | 8.0 Unit/ml | – |
| CC1CCN(C(=N)NC(=N)Nc2ccc(Br)cc2)CC1.Cl [Example 48, N1-(4-methyl)piperidin-N5-(4-bromo)phenyl Biguanide Hydrochloride] | 8.6 µM | 4.3 Unit/ml | 6.8 Unit/ml | cell death | – |
| CC1CCCN(C(=N)NC(=N)Nc2cccc(C(F)(F)F)c2)C1.Cl (stereo not shown) [Example 51, N1-(3-methyl)piperidin-N5-(3-trifluoromethyl)phenyl Biguanide Hydrochloride] | 6.6 µM | 12.5 Unit/ml | 15.2 Unit/ml | cell death | – |
| CCCN(CCC)C(=N)NC(=N)N(CCC)CCC.Cl [Example 16, N1,N1-dipropyl-N5N-dipropyl Biguanide Hydrochloride] | 45.9 µM | 7.0 Unit/ml | 9.4 Unit/ml | 13.6 Unit/ml | – |
| CC1CCN(C(=N)NC(=N)NCc2ccc(C(F)(F)F)cc2)CC1.Cl [Example 61, N1 (4-methyl)piperidin-N5-(4-trifluoromethyl)benzyl Biguanide Hydrochloride] | 12.6 µM | 6.4 Unit/ml | 11.8 Unit/ml | 12.3 Unit/ml | – |
| CC1CC(C)CN(C(=N)NC(=N)Nc2ccc(F)c(C(F)(F)F)c2)C1.Cl (stereo not shown) [Example 65, N1-(3,5-dimethyl)piperidin-N5-(3-trifluoromethyl-4-fluoro)phenyl Biguanide Hydrochloride] | 2.5 µM | 15.0 Unit/ml | 20.1 Unit/ml | cell death | – |
| CC1CCCN(C(=N)NC(=N)NC2CCCC2)C1.Cl (stereo not shown) [Example 44, N1-(3-methyl)piperidin-N5-cyclopentyl Biguanide Hydrochloride] | > 100 µM | 4.5 Unit/ml | 5.2 Unit/ml | 14.8 Unit/ml | – |
| Cl.N=C(NCc1ccccc1Cl)NC(=N)N1CCCCC1 [Example 12, N1-piperidin-N5-(2-chloro)benzyl Biguanide Hydrochloride] | > 100 µM | – | – | 3.1 Unit/ml | – |
| CN1CCN(C(=N)NC(=N)Nc2cccc(OC(F)(F)F)c2)CC1.Cl [Example 22, N1-(4-methyl)piperazin-N5-(3-trifluoromethoxy)phenyl Biguanide Hydrochloride] | 35.2 µM | 3.8 Unit/ml | 10.1 Unit/ml | 22.3 Unit/ml | – |
| CC1CCN(C(=N)NC(=N)Nc2ccc(F)cc2)CC1.Cl [Example 56, N1-(4-methyl)piperidin-N5-(4-fluoro)phenyl Biguanide Hydrochloride] | 48.8 µM | 2.7 Unit/ml | 4.8 Unit/ml | 15.4 Unit/ml | – |
| CC1CCCN(C(=N)NC(=N)Nc2cnccn2)C1.Cl (stereo not shown) [Example 47, N1-(3-methyl)piperidin-N5-pyrazin-2-yl Biguanide Hydrochloride] | 130 µM | 2.8 Unit/ml | 3.8 Unit/ml | 5.3 Unit/ml | – |
| Cl.N=C(N)NC(=N)N(Cc1ccccc1)Cc1ccccc1 [Example 130, N1,N1-dibenzyl Biguanide Hydrochloride] | > 100 µM | – | – | 8.8 Unit/ml | – |
| CCCN(CC)C(=N)NC(=N)N(CCC)CCC.Cl [Example 7, N1,N1-dipropyl-N5-propyl-N5-ethyl Biguanide Hydrochloride] | > 100 µM | 16.2 Unit/ml | 22.3 Unit/ml | 34.6 Unit/ml | – |
| CCOC1CCN(C(=N)NC(=N)Nc2ccc(C(F)(F)F)cc2)CC1.Cl [Example 23, N1-(4-ethoxy)piperidin-N5-(4-trifluoromethyl)phenyl Biguanide Hydrochloride] | 12.7 µM | 7.7 Unit/ml | 6.6 Unit/ml | cell death | – |
| COc1ccc(NC(=N)NC(=N)N)cc1.Cl [Example 120, N1-(4-methoxy)phenyl Biguanide Hydrochloride] | > 100 µM | – | – | 8.1 Unit/ml | – |
| Cl.N=C(N)NC(=N)N1CCCCC1 [Example 123, N1-piperidine Biguanide Hydrochloride] | > 100 µM | 6.6 Unit/ml | 7.5 Unit/ml | 12.6 Unit/ml | – |
| CC1CCN(C(=N)NC(=N)Nc2ccc(Cl)c(C(F)(F)F)c2)CC1.Cl [Example 58, N1-(4-methyl)piperidin-N5-(3-trifluoromethyl-4-chloro)phenyl Biguanide Hydrochloride] | 2.3 µM | 2.5 Unit/ml | 5.0 Unit/ml | cell death | – |
| CC1CCN(C(=N)NC(=N)Nc2ccc(C(F)(F)F)cc2)CC1.Cl [Example 53, N1-(4-methyl)piperidin-N5-(4-trifluoromethyl)phenyl Biguanide Hydrochloride] | 6.1 µM | 9.2 Unit/ml | 13.9 Unit/ml | cell death | – |
| CC/N=C(\NCCc1ccc2c(c1)OCO2)NC(=N)N.Cl [Example 101, N1-2-(benzo[d][1,3]dioxol-5-yl)ethyl-N2-ethyl Biguanide Hydrochloride] | > 100 µM | 4.1 Unit/ml | 3.6 Unit/ml | 5.9 Unit/ml | – |
| CCCN(CCC)C(=N)NC(=N)N(C1CCCCC1)C1CCCCC1.Cl [Example 15, N1,N1-dipropyl-N5,N5-dicyclohexyl Biguanide Hydrochloride] | > 100 µM | – | – | 6.1 Unit/ml | – |
| C=CCNC(=N)NC(=N)N.Cl [Example 111, N1-(2-prophene) Biguanide Hydrochloride] | 35.7 µM | 11.4 Unit/ml | 12.1 Unit/ml | 30.2 Unit/ml | – |
| CN1CCN(C(=N)NC(=N)Nc2cccc(Cl)c2)CC1.Cl [Example 29, N1-(4-methyl)piperazin-N5-(3-chloro)phenyl Biguanide Hydrochloride] | > 100 µM | 4.0 Unit/ml | 5.4 Unit/ml | 6.8 Unit/ml | – |
| Cl.N=C(N)NC(=N)NCc1ccccc1 [Example 124, N1-benzyl Biguanide Hydrochloride] | 56.7 µM | – | – | 8.4 Unit/ml | – |
| CC1CC(=O)N=C(NC(=N)N2CCCCC2)N1.Cl (stereo not shown) [Example 154, N-(6-methyl-4-oxo-1,4,5-tetrahydropyrimidin-2-yl)piperidin-1-carboximidamide Hydrochloride] | > 100 µM | 2.9 Unit/ml | 2.9 Unit/ml | 2.8 Unit/ml | – |
| Cl.N=C(N)NC(=N)NCc1ccc(Cl)cc1 [Example 129, N1-(4-chloro)benzyl Biguanide Hydrochloride] | > 100 µM | 9.2 Unit/ml | 7.0 Unit/ml | 11.4 Unit/ml | – |
| Cl.N=C(NC(N)=NCCc1cccs1)N1CCCCC1 [Example 99, N1-piperidin-N2-(2-thiophen-2-yl)ethyl Biguanide Hydrochloride] | – | 4.0 Unit/ml | 2.9 Unit/ml | 3.6 Unit/ml | > 100 µM |
| Cl.N=C(NC(=N)N1CCCC1)Nc1ccccc1C(F)(F)F [Example 75, N1-pyrrolidin-N5-(2-trifluoromethyl)phenyl Biguanide Hydrochloride] | – | 3.5 Unit/ml | 3.6 Unit/ml | 5.3 Unit/ml | > 100 µM |
| Cl.N=C(NC(=N)N1CC=CCC1)N1CC=CCC1 [Example 68, N1-1,2,3,6-tetrahydropyridin-N5-1,2,3,6-tetrahydropyridine Biguanide Hydrochloride] | > 100 µM | 4.2 Unit/ml | 4.4 Unit/ml | 4.4 Unit/ml | – |
